Measured values published in PMC4685510, “A Cell Biologist’s Field Guide to Aurora Kinase Inhibitors” (Frontiers in Oncology, 2015).

Experiments:
Assay in all cases: biochemical
Type in all cases: biochemical
[1] = target: T1, 363 human kinases (including Aurora A/B/C) (Homo sapiens, UniProt O14757); details: CHK1, [ATP] 20 µM; for remaining activity at 0.1 µM: 100 nM; for remaining activity at 0.1 µM / remaining activity at 0.5 µM: read-out: % Enzyme Activity (relative to DMSO controls)
T1 sequence (O14757 1-476): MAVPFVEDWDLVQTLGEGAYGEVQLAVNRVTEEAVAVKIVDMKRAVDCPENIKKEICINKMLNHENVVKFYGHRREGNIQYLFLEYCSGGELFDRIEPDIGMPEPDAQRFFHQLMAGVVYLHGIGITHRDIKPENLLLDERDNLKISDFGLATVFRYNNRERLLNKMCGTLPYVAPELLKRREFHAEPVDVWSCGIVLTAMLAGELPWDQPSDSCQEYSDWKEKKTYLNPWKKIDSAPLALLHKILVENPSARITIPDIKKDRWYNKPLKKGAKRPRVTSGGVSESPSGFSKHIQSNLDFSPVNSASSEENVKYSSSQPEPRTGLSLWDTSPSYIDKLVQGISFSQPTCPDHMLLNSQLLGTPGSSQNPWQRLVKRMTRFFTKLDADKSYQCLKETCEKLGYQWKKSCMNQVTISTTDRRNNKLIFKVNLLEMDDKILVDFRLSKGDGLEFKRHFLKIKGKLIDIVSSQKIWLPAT
Source text: (§1) However, the Aurora A/B selectivity ratios derived from our in vitro and in vivo data can be compared to prioritize inhibitors.

[2] = target: 363 human kinases (including Aurora A/B/C) (Homo sapiens, UniProt O75116); details: ROCK2; for remaining activity at 0.1 µM: 100 nM; for remaining activity at 0.1 µM / remaining activity at 0.5 µM: read-out: % Enzyme Activity (relative to DMSO controls)
Source text: as §1

[3] = target: T2, 363 human kinases (including Aurora A/B/C) (Homo sapiens, UniProt P43403); details: ZAP70; for remaining activity at 0.1 µM: 100 nM; for remaining activity at 0.1 µM / remaining activity at 0.5 µM: read-out: % Enzyme Activity (relative to DMSO controls)
T2 sequence (P43403 1-619): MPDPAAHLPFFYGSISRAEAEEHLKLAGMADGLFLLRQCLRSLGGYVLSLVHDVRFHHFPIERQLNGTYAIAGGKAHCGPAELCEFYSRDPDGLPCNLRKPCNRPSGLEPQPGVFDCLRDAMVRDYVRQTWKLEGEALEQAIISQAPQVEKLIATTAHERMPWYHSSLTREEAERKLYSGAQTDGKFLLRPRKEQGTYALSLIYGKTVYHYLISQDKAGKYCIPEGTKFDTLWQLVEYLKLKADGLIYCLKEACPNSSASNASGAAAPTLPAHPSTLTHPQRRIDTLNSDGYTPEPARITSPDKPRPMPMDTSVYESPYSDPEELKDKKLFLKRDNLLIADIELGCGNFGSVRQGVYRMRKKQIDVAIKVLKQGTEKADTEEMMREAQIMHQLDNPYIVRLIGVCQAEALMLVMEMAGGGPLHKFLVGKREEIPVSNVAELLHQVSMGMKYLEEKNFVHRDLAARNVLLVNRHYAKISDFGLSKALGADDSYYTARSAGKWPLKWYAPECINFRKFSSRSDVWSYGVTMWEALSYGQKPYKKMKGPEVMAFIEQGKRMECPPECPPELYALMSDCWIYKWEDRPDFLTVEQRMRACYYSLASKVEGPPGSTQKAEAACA
Source text: as §1

[4] = target: T3, 363 human kinases (including Aurora A/B/C) (Homo sapiens, UniProt P52564); details: MKK6; for remaining activity at 0.1 µM: 100 nM; for remaining activity at 0.1 µM / remaining activity at 0.5 µM: read-out: % Enzyme Activity (relative to DMSO controls)
T3 sequence (P52564 1-334): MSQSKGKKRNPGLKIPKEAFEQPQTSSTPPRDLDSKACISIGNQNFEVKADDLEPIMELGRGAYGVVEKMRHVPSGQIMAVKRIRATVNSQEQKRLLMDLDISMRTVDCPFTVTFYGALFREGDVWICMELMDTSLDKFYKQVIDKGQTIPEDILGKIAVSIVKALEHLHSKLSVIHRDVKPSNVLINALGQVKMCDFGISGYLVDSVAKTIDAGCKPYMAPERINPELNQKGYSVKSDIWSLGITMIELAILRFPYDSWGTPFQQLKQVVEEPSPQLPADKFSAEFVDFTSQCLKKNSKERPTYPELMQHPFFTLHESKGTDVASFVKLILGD
Source text: as §1

[5] = target: 363 human kinases (including Aurora A/B/C) (Homo sapiens, UniProt Q15569); details: TESK1; for remaining activity at 0.1 µM: 100 nM; for remaining activity at 0.1 µM / remaining activity at 0.5 µM: read-out: % Enzyme Activity (relative to DMSO controls)
Source text: as §1

[6] = target: T4, 363 human kinases (including Aurora A/B/C) (Homo sapiens, UniProt Q8IYT8); details: ULK2; for remaining activity at 0.1 µM: 100 nM; for remaining activity at 0.1 µM / remaining activity at 0.5 µM: read-out: % Enzyme Activity (relative to DMSO controls)
T4 sequence (Q8IYT8 1-1036): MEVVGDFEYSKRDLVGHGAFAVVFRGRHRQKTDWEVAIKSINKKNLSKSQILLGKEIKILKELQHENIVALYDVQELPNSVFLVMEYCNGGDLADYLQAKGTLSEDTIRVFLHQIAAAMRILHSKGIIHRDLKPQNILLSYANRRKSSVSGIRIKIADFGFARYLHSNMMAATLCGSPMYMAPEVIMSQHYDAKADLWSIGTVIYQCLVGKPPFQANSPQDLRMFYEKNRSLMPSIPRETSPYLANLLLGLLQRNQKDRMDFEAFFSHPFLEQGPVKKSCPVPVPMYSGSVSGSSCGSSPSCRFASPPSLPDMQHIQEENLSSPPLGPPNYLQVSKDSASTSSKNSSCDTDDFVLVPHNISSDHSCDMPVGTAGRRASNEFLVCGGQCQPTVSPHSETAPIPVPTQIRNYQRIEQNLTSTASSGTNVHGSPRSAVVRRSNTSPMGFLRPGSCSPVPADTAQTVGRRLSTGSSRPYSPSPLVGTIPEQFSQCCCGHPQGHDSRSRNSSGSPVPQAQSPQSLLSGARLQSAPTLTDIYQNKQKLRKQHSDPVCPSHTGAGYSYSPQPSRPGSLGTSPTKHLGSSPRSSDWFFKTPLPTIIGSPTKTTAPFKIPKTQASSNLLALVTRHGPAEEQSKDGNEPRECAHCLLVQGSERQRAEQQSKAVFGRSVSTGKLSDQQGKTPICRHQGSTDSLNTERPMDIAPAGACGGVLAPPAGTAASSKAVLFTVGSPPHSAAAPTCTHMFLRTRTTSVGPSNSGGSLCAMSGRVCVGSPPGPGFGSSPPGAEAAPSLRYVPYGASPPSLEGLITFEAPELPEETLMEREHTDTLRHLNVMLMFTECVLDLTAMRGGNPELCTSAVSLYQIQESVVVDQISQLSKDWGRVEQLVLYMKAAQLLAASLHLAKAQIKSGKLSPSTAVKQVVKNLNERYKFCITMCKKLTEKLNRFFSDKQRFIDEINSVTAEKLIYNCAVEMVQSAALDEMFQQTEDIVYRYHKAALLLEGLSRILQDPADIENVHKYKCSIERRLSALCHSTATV
Source text: as §1

363 human kinases (including Aurora A/B/C) (Homo sapiens, UniProt Q15569), sequence (Q15569 whole entry): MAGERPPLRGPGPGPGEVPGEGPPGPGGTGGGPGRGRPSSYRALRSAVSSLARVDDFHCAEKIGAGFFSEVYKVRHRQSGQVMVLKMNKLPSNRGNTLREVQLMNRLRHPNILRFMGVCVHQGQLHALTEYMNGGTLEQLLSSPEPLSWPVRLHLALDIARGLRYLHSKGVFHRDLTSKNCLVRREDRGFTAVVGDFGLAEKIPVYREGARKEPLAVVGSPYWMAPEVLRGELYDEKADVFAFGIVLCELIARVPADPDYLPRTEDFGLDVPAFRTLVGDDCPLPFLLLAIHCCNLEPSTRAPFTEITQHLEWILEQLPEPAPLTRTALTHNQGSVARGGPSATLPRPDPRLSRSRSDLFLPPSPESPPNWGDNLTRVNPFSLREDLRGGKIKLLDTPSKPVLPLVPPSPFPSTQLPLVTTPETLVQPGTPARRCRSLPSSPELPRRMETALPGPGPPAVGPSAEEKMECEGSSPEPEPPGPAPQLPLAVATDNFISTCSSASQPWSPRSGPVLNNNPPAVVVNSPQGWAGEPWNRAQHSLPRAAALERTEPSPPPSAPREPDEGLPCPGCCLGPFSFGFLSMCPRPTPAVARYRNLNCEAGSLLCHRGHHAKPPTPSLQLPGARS
363 human kinases (including Aurora A/B/C) (Homo sapiens, UniProt O75116), sequence (O75116 whole entry): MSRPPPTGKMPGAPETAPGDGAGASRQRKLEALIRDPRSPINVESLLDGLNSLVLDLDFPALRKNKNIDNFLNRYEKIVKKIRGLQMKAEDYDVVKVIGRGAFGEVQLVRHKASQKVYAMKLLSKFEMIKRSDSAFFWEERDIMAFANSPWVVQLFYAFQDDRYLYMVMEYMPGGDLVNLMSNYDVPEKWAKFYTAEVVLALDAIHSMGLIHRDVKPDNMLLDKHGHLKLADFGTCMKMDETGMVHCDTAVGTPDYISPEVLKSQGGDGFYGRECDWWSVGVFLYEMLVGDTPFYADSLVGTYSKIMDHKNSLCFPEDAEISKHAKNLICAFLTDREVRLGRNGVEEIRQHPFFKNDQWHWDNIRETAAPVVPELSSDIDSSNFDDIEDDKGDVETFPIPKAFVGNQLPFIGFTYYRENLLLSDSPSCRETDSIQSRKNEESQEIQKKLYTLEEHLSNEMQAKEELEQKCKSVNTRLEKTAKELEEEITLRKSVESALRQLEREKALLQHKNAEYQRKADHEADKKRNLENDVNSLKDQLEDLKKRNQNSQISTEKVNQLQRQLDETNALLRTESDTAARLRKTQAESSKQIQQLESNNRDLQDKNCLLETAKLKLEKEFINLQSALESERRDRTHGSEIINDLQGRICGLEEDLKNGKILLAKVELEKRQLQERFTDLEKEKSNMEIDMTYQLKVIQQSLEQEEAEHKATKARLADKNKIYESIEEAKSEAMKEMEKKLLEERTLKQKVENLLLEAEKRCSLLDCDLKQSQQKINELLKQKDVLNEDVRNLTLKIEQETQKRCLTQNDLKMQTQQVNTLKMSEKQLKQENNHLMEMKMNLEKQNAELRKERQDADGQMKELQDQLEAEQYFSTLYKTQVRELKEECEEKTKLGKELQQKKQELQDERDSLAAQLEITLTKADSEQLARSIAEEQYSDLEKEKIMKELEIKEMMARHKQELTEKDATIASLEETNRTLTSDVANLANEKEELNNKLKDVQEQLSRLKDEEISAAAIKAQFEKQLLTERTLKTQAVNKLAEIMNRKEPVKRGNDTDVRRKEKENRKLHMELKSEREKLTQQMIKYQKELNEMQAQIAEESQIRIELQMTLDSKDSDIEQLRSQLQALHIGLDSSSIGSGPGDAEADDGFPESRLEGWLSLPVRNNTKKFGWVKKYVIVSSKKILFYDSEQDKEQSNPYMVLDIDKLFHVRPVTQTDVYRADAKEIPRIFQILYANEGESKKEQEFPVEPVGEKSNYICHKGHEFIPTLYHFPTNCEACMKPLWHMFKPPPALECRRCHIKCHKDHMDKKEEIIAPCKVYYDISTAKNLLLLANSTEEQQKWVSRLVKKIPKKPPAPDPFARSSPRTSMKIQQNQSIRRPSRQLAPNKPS

| SMILES | remaining activity at 0.1 µM [1] [%] | remaining activity at 0.5 µM ([1]; 500 nM) [%] | remaining activity at 0.1 µM [2] [%] | remaining activity at 0.5 µM ([2]; 500 nM) [%] | remaining activity at 0.1 µM [3] [%] | remaining activity at 0.5 µM ([3]; 500 nM) [%] | remaining activity at 0.1 µM [4] [%] | remaining activity at 0.5 µM ([4]; 500 nM) [%] | remaining activity at 0.1 µM [5] [%] | remaining activity at 0.5 µM ([5]; 500 nM) [%] | remaining activity at 0.1 µM [6] [%] | remaining activity at 0.5 µM ([6]; 500 nM) [%] | % Enzyme Activity (relative to DMSO controls) ([1]; 500 nM) [%] | % Enzyme Activity (relative to DMSO controls) ([2]; 500 nM) [%] | % Enzyme Activity (relative to DMSO controls) ([3]; 500 nM) [%] | % Enzyme Activity (relative to DMSO controls) ([4]; 500 nM) [%] | % Enzyme Activity (relative to DMSO controls) ([5]; 500 nM) [%] | % Enzyme Activity (relative to DMSO controls) ([6]; 500 nM) [%] |
| --- | --- | --- | --- | --- | --- | --- | --- | --- | --- | --- | --- | --- | --- | --- | --- | --- | --- | --- |
| O=C(O)[C@]1(Cc2cccc(Nc3nccs3)n2)CC[C@@H](Oc2cccc(Cl)c2F)CC1 [MK-5108] | 103 | 148 | 99.6 | 98.2 | 103 | 113 | 95.4 | 76.7 | 97.9 | 99.8 | 113 | 134 |  |  |  |  |  |  |
| O=C(c1cccc(Cl)c1F)N1CCN(Cc2cccc(Nc3nccs3)n2)CC1 [MK-8745] |  | 105 |  | 92.6 |  | 109 |  | 68 |  | 99.9 |  | 144 | 104.15 | 91.55 | 97.69 | 66.22 | 97.82 | 140.35 |
| CCn1cc(-c2ccnc3[nH]c(-c4cccc(CN(C)C)c4)cc23)c(-c2ccc(NC(=O)N(C)C)cc2)n1 [GSK1070916] | 98.7 |  | 71.8 |  | 105 |  | 85.3 |  | 103 |  | 141 |  |  |  |  |  |  |  |
